Laboratory results: patent US20250051479A1, “CYTOTOXICITY TARGETING CHIMERAS FOR CXCR3-EXPRESSING CELLS” (GLAXOSMITHKLINE INTELLECTUAL PROPERTY DEVELOPMENT LIMITED, priority 2022, published 2025)

Test system: CHOK1 cells engineered to overexpress CXCR3
Test: Antibody dependent cellular cytotoxicity (ADCC) reporter assay
Format: cell-based
Conditions: with anti-cotinine antibody (human IgG1 Fc, S239D/I332E), Jurkat FcγRIIIa NFAT-luciferase reporter cells, incubated about 12-18 hours, average of two experimental runs, EC50 in molar (M)
Experimental: An antibody dependent cellular cytotoxicity (ADCC) reporter assay was conducted using the following four assay components: (i) ARM compound of Formula (I) targeting CXCR3 (concentrations ranging from 1 pM to 10 μM); (ii) anti-cotinine antibody having a heavy chain sequence of SEQ ID NO: 11 and a light chain sequence of SEQ ID NO: 12 (rabbit variable region with human IgG1 Fc domain containing DE mutation (S239D/I332E)) (concentrations ranging from 0.01 μg/mL-200 μg/mL); (iii) Target cells: CHOK1 cells engineered to overexpress CXCR3 (typically 1000-20,000 cells per well); and (iv) Reporter cells—Jurkat cells engineered to express FcγRIIIa with a reporter gene luciferase under the control of the NFAT promoter (typically 3000-75,000 cells per well). Reagents were combined in final volume of 20 μL in 384-well tissue culture treated plate. […]
Luminescence signal was measured on a microplate reader capable of measuring luminescence and signal:background was calculated by dividing the signal of a test well by the signal obtained when no compound of formula (I) was included in the assay. […]
ARMs compounds of Formula (I) were tested for ADCC activity in the above assay in two experimental runs and the results are shown in Table 3 below. […] The pEC50 value is the negative log of the EC50 value, wherein the EC50 value is half maximal effective concentration measured in molar (M). […]

CCOc1ccc(-n2c([C@@H](C)N(CC3CCN(C(=O)C4CCC(NC(=O)CCCOC5CCC(OCCNC(=O)[C@H]6CC(=O)N(C)[C@@H]6c6cccnc6)CC5)CC4)CC3)C(=O)Cc3ccc(F)c(C(F)(F)F)c3)nc3ncccc3c2=O)cc1 (stereo partly drawn) [Example 1, (2S,3S)—N-(2-(((1R,4S)-4-(4-(((1R,4R)-4-(4-((N-((R)-1-(3-(4-ethoxyphenyl)-4-oxo-3,4-dihydropyrido[2,3-d]pyrimidin-2-yl)ethyl)-2-(4-fluoro-3-(trifluoromethyl)phenyl)acetamido)methyl)piperidine-1-carbonyl)cyclohexyl)amino)-4-oxobutoxy)cyclohexyl)oxy)ethyl)-1-methyl-5-oxo-2-(pyridin-3-yl)pyrrolidine-3-carboxamide]
ADCC Reporter Assay pEC50: 7.7

CCOc1ccc(-n2c([C@@H](C)N(CC3CCN(C(=O)[C@H]4CC[C@H](NC(=O)CCCO[C@H]5CC[C@H](OCCNC(=O)[C@H]6CC(=O)N(C)[C@@H]6c6cccnc6)CC5)CC4)CC3)C(=O)Cc3ccc(F)c(C(F)(F)F)c3)nc3ncccc3c2=O)cc1 (racemic) [Example 2, (2S,3S)-N-(2-(((1R,4S)-4-(4-(((1S,4S)-4-(4-((N-((R)-1-(3-(4-ethoxyphenyl)-4-oxo-3,4-dihydropyrido[2,3-d]pyrimidin-2-yl)ethyl)-2-(4-fluoro-3-(trifluoromethyl)phenyl)acetamido)methyl)piperidine-1-carbonyl)cyclohexyl)amino)-4-oxobutoxy)cyclohexyl)oxy)ethyl)-1-methyl-5-oxo-2-(pyridin-3-yl)pyrrolidine-3-carboxamide]
EC50 (Cricetulus griseus, read-out: ADCC Reporter Assay pEC50 (converted)): 3.98e-09 M
